Measurements taken from ChEMBL document CHEMBL3763027, “Identification and characterization of potent, selective and metabolically stable IKKβ inhibitor” (Bioorg Med Chem Lett, 2016).
Activity calls are given as the source filed them. No cut-off for these calls is given here.

Key:
[1] = target: T1, Inhibitor of nuclear factor kappa-B kinase subunit beta (Homo sapiens) (UniProt O14920); test: Inhibition of IKKbeta (unknown origin) transfected in human HeLa cells assessed as inhibition of TPA-induced NF-kappaB activation at 10 uM pre-incubated with compound for 1 hr followed by TPA addition after 8 hrs by luciferase reporter gene assay; assay type: cell-based
T1 sequence (whole entry): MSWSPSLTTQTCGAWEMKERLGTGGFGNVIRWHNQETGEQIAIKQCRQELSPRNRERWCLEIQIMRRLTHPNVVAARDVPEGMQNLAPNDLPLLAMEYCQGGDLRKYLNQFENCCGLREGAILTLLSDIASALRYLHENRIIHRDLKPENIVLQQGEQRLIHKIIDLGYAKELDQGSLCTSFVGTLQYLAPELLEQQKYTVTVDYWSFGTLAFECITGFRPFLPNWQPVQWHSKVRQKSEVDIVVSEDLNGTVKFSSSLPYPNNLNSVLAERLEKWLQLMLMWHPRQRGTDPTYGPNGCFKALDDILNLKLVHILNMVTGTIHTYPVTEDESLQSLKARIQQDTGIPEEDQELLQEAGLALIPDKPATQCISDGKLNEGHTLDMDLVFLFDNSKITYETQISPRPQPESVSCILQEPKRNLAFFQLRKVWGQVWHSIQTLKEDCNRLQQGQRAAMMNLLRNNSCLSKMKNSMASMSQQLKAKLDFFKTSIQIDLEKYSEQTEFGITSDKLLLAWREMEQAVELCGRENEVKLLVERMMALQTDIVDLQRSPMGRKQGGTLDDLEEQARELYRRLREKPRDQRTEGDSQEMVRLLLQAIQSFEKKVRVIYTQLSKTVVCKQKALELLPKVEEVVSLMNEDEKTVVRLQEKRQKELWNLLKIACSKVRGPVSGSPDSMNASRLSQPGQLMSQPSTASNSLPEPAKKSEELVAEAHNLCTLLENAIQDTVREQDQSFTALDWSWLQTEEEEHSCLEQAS

[2] = Half life in human microsomes; assay type: ADME, Microsome
[3] = target: Aurora kinase B (Homo sapiens) (UniProt Q96GD4); test: Inhibition of Aurora B (unknown origin) at 10 uM
Sequence of Aurora kinase B (Homo sapiens) (Q96GD4 whole entry): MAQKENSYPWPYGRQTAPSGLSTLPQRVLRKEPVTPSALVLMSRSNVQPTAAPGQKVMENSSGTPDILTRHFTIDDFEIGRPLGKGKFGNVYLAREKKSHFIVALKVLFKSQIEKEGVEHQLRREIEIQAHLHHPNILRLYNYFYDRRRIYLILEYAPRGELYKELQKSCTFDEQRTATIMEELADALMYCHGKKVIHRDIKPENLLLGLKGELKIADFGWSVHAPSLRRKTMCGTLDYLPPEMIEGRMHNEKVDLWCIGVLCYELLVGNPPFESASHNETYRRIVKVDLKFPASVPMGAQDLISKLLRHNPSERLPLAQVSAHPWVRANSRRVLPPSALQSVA

[4] = target: Serine/threonine-protein kinase B-raf (Homo sapiens) (UniProt P15056); test: Inhibition of BRAF (unknown origin) at 10 uM
[5] = target: Calcium/calmodulin-dependent protein kinase type 1 (Homo sapiens) (UniProt Q14012); test: Inhibition of CAMK1alpha (unknown origin) at 10 uM
Sequence of Calcium/calmodulin-dependent protein kinase type 1 (Homo sapiens) (Q14012 whole entry, looked up): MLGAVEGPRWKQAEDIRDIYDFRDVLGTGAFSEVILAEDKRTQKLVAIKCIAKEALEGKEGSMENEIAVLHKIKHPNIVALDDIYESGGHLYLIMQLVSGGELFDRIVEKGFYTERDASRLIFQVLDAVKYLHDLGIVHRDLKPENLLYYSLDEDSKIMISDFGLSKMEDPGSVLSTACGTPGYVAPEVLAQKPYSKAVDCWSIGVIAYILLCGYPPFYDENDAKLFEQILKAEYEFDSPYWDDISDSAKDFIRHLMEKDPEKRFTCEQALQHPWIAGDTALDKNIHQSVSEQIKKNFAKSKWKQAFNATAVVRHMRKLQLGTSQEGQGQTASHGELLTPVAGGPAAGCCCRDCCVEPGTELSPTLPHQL

[6] = target: Cyclin-dependent kinase 5/CDK5 activator 1 (Homo sapiens) (UniProt Q00535+Q15078); test: Inhibition of CDK5/p25 (unknown origin) at 10 uM; assay type: protein-complex assay
Sequence of Cyclin-dependent kinase 5/CDK5 activator 1 (Homo sapiens) (Q00535 whole entry): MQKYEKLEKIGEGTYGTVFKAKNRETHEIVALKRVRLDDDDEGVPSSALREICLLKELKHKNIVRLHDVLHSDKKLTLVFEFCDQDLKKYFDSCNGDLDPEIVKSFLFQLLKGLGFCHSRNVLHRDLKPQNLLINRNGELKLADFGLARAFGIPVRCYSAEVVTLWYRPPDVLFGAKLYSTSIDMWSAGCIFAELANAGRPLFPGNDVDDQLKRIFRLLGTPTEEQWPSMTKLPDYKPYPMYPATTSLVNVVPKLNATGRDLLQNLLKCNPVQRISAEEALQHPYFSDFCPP
Sequence of Cyclin-dependent kinase 5/CDK5 activator 1 (Homo sapiens) (Q15078 99-307 partner limits assumed): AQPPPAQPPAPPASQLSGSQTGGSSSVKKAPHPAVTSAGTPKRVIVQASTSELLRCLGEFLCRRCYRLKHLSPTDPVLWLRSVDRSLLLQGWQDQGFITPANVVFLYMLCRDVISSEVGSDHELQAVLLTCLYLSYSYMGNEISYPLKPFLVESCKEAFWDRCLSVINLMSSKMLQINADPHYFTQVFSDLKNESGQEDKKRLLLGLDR

[7] = target: CDK6/cyclin D1 (Homo sapiens) (UniProt P24385+Q00534); test: Inhibition of CDK6/cyclin D1 (unknown origin) at 10 uM; assay type: protein-complex assay
[8] = target: Cyclin-dependent kinase 7/ cyclin H (Homo sapiens) (UniProt P51946+P50613); test: Inhibition of CDK7/cyclin H (unknown origin) at 10 uM; assay type: protein-complex assay
[9] = target: CDK9/cyclin T1 (Homo sapiens) (UniProt O60563+P50750); test: Inhibition of CDK9/cyclin T1 (unknown origin) at 10 uM; assay type: protein-complex assay
[10] = target: Serine/threonine-protein kinase Chk2 (Homo sapiens) (UniProt O96017); test: Inhibition of CHK2 (unknown origin) at 10 uM
Sequence of Serine/threonine-protein kinase Chk2 (Homo sapiens) (O96017 whole entry): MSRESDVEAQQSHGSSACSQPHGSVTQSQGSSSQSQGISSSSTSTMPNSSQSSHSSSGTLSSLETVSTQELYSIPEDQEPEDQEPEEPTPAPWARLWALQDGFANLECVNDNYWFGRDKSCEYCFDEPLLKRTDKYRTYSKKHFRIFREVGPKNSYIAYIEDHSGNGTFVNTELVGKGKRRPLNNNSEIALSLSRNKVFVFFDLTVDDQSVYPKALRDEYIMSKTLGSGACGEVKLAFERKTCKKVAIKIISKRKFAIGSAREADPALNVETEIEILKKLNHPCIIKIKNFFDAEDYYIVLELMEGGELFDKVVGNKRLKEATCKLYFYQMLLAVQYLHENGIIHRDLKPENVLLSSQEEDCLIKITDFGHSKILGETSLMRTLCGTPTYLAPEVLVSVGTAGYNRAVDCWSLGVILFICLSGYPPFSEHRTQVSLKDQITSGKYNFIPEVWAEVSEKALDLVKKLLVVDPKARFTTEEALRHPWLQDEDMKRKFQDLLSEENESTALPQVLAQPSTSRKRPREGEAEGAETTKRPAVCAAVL

[11] = target: Casein kinase II subunit alpha (Homo sapiens) (UniProt P68400); test: Inhibition of CK2alpha (unknown origin) at 10 uM
[12] = target: Ephrin type-A receptor 2 (Homo sapiens) (UniProt P29317); test: Inhibition of EPHA2 (unknown origin) at 10 uM
Sequence of Ephrin type-A receptor 2 (Homo sapiens) (P29317 whole entry): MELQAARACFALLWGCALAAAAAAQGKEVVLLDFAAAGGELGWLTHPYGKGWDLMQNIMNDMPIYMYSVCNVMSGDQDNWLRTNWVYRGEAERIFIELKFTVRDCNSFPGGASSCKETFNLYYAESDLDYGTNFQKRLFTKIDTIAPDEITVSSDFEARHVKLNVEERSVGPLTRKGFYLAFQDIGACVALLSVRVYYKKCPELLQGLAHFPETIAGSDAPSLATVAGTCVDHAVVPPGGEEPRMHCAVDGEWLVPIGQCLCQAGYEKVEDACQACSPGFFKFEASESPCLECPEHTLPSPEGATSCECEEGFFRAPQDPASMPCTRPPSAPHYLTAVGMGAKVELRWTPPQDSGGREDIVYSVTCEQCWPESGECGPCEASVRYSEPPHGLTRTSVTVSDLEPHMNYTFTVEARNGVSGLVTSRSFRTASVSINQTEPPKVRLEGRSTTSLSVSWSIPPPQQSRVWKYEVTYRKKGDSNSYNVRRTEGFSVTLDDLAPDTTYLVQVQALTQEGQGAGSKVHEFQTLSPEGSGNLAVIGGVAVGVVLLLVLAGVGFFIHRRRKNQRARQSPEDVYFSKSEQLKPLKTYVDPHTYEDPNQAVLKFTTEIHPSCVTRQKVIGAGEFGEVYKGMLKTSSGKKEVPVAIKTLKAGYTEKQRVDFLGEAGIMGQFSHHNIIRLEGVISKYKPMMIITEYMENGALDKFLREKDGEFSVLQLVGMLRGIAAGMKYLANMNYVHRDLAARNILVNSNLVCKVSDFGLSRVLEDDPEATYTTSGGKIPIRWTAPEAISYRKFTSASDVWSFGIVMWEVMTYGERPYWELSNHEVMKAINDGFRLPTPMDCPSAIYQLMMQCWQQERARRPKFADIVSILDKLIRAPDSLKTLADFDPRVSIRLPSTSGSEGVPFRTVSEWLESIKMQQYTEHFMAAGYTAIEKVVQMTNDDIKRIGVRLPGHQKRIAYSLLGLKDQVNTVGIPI

[13] = target: Fibroblast growth factor receptor 1 (Homo sapiens) (UniProt P11362); test: Inhibition of FGFR1 (unknown origin) at 10 uM
[14] = target: Glycogen synthase kinase-3 beta (Homo sapiens) (UniProt P49841); test: Inhibition of GSK3beta (unknown origin) at 10 uM
[15] = target: Mitogen-activated protein kinase 8 (Homo sapiens) (UniProt P45983); test: Inhibition of JNK1 (unknown origin) at 10 uM
Sequence of Mitogen-activated protein kinase 8 (Homo sapiens) (P45983 whole entry): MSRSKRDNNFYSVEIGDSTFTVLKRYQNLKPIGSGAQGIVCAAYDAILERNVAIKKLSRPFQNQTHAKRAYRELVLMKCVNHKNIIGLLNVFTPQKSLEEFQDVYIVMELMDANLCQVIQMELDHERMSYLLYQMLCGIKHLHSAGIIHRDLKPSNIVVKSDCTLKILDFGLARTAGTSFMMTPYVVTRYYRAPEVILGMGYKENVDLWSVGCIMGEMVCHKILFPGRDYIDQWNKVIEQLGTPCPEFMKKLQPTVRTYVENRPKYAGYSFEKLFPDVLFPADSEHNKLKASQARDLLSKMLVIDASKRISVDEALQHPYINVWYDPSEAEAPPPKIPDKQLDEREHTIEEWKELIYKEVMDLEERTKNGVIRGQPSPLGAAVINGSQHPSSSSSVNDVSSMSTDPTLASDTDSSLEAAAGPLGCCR

[16] = target: MAP kinase-activated protein kinase 2 (Homo sapiens) (UniProt P49137); test: Inhibition of MAPKAPK2 (unknown origin) at 10 uM
[17] = target: MAP kinase-interacting serine/threonine-protein kinase 2 (Homo sapiens) (UniProt Q9HBH9); test: Inhibition of MNK2 (unknown origin) at 10 uM
[18] = target: Serine/threonine-protein kinase pim-2 (Homo sapiens) (UniProt Q9P1W9); test: Inhibition of PIM2 (unknown origin) at 10 uM
[19] = target: Rho-associated protein kinase 1 (Homo sapiens) (UniProt Q13464); test: Inhibition of ROCK1 (unknown origin) at 10 uM
Sequence of Rho-associated protein kinase 1 (Homo sapiens) (Q13464 2-1354 limits assumed): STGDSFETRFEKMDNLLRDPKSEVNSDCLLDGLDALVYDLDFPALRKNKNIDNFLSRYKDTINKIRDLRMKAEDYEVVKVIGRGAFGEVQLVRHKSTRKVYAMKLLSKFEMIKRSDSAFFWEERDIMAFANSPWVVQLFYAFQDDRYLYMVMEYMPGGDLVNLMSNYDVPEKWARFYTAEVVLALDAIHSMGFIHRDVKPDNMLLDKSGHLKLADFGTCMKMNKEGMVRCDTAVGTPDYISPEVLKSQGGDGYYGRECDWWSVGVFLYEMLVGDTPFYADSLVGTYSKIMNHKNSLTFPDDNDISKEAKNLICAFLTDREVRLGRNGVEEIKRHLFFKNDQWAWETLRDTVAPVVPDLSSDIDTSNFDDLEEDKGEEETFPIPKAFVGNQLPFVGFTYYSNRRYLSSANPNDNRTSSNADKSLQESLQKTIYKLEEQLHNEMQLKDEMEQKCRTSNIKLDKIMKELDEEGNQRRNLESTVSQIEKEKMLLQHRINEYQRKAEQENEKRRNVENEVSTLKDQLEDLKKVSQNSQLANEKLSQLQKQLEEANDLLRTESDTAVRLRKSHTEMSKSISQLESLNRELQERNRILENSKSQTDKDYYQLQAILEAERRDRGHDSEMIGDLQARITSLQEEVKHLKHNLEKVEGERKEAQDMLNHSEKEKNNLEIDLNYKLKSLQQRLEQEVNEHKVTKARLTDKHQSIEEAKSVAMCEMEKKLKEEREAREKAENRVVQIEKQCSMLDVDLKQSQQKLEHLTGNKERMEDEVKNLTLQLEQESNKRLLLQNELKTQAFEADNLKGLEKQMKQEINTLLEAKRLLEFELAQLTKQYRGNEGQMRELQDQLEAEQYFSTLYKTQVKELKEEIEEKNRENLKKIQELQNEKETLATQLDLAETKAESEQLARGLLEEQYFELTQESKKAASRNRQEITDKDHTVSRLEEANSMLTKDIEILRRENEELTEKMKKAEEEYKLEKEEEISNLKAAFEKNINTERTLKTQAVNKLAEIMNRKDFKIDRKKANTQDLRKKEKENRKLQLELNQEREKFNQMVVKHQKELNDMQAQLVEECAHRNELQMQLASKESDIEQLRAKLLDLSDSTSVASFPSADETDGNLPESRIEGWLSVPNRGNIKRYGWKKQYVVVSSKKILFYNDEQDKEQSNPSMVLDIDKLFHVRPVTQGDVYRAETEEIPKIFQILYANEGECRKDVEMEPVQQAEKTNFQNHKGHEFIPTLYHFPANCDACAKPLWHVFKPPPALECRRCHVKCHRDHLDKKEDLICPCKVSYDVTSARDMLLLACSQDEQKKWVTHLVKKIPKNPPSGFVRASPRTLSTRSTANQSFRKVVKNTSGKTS

[20] = target: Angiopoietin-1 receptor (Homo sapiens) (UniProt Q02763); test: Inhibition of TIE2 (unknown origin) at 10 uM
Homo sapiens = organism: Homo sapiens; test: Inhibition of TPKA (unknown origin) at 10 uM
[21] = target: T1, Inhibitor of nuclear factor kappa-B kinase subunit beta (Homo sapiens); test: Non-competitive inhibition of IKKbeta (unknown origin) using FAM-IkBalpha derived peptide as substrate at 0.5 to 1 uM incubated for 1 hr measured after 15 hrs by Lineweaver-Burk plot method in the presence of 0.625 to 10 uM ATP
Mus musculus [22] = test: Toxicity in female ICR mouse assessed as average body weight at 2000 mg/kg, po administered for 3 days measured 3 hrs post last dose (reference value: 18.9 +/- 0.9 g); assay type: organism-based; details: in vivo
Mus musculus [23] = test: Toxicity in female ICR mouse assessed as average body weight at 2000 mg/kg, po administered for 7 days measured 3 hrs post last dose (reference value: 18.9 +/- 0.9 g); assay type: organism-based; details: in vivo
Mus musculus [24] = test: Toxicity in male ICR mouse assessed as average body weight at 2000 mg/kg, po administered for 2 days measured 3 hrs post last dose (reference value: 20.3 +/- 0.4 g); assay type: organism-based; details: in vivo
Mus musculus [25] = test: Toxicity in male ICR mouse assessed as average body weight at 2000 mg/kg, po administered for 3 days measured 3 hrs post last dose (reference value: 20.3 +/- 0.4 g); assay type: organism-based; details: in vivo
Mus musculus [26] = test: Toxicity in male ICR mouse assessed as average body weight at 2000 mg/kg, po administered for 14 days measured 3 hrs post last dose (reference value: 20.3 +/- 0.4 g); assay type: organism-based; details: in vivo
[27] = Half life in Sprague-Dawley rat at 1 mg/kg, iv after 0.25 to 24 hrs; assay type: ADME, organism-based; details: in vivo
[28] = Half life in Sprague-Dawley rat at 2 mg/kg, po after 0.25 to 24 hrs; assay type: ADME, organism-based; details: in vivo
[29] = target: Mitogen-activated protein kinase 1 (Homo sapiens) (UniProt P28482); test: Inhibition of ERK2/MAPK2 (unknown origin) at 10 uM
Sequence of Mitogen-activated protein kinase 1 (Homo sapiens) (P28482 whole entry, looked up): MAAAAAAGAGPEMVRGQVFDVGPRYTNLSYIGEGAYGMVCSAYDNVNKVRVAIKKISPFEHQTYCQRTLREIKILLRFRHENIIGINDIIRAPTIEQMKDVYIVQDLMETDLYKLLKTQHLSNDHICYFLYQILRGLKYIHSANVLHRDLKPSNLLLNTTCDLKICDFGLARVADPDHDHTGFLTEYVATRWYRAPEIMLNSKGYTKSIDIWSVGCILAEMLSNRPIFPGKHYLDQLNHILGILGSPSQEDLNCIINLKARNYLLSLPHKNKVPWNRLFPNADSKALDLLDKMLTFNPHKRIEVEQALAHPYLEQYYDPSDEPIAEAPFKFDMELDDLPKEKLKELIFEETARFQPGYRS

Mus musculus [30] = test: Toxicity in ICR mouse assessed as appearance of abnormal symptoms at 2000 mg/kg, po administered as single dose and observed for 14 days measured on day 15; details: in vivo, 336 h

CN1CCN(CCCOc2ccc(N3C(=O)/C(=C/c4ccc(Oc5ccc(F)cc5)cc4)SC3=S)cc2)CC1
inhibition [1]: 84.8%
half-life [2]: 3.98 h
inhibition [3]: 0%
inhibition [4]: 0%
inhibition [5]: 58.6%
inhibition [6]: 5.5%
inhibition [7]: 12.9%
inhibition [8]: 2.5%
inhibition [9]: 0%
inhibition [10]: 47%
inhibition [11]: 0%
inhibition [12]: 29%
inhibition [13]: 20.5%
inhibition [14]: 0%
inhibition [15]: 2%
inhibition [16]: 42%
inhibition [17]: 33.1%
inhibition [18]: 0%
inhibition [19]: 61.1%
inhibition [20]: 57.5%
inhibition (Homo sapiens): 24.7%
inhibition [21]: Active
Activity (Mus musculus [22]): 23.3 g
Activity (Mus musculus [23]): 28.9 g
Activity (Mus musculus [24]): 22.1 g
Activity (Mus musculus [25]): 23.2 g
Activity (Mus musculus [26]): 29.2 g
half-life [27]: 5.5 h
half-life [28]: 5.81 h
inhibition [29]: 6.8%
Activity (Mus musculus [30]): Non-toxic
